Data: patent EP0686635A1, “Pyridylthiazolidinecarboxylic acid amide derivatives, their preparation and their therapeutic uses” (Sankyo Company Limited, priority 1991, dated 1993)
In brackets after ≈: the same amount, converted by molar mass. Where two headings read alike, the source gives them in different places.

Key:
[1] = tested on: passive cutaneous anaphylaxis (PCA) in rats; assay: Inhibitory effect on passive cutaneous anaphylaxis (PCA) in rats; format: in vivo; conditions: dose 6.4 mg/kg p.o., 60 minutes before antigen challenge, exuded Evans Blue vs control group
Experimental: According to Mota's method [I. Mota, Immunology, 7, 681 - 699 (1964)], antiserum (256 times the PCA titer) of rat against egg albumin was prepared and diluted four times with physiological saline. Male SD rats (5 weeks old) were used as the test animals in groups, each containing 4 animals. The rats were sensitized by intradermal injection of 0.05 ml of the diluted antiserum solution in the dorsal position. 48 hours after this injection, a suspension of the test compound in an aqueous 0.5% w/v tragacanth solution was orally administered to the rats, which had been fasted for one day, and 60 minutes later they were injected in the caudal vein with 5 ml/kg body weight of physiological saline containing 0.4% w/v egg albumin and 1.0% w/v Evans Blue. 30 minutes after this last injection, the rats were sacrificed with carbon dioxide and the Evans Blue exuded in the dorsal intradermal portion was determined according to Harada's method (Harada et al., J. Pharm. Pharmac., 23, 218 - 219 (1971)].
The results achieved from the test groups which were treated with a test compound were evaluated to determine the inhibitory rate by comparison with the average amount of exuded dye in a control group, which was not given the test compound.
The inhibitory rate was calculated by the following equation. Inhibitory rate (%) = (1-B/A) x 100 [formula] A: amount of exuded dye in the control group B: amount of exuded dye in the test group.

[2] = tested on: PAF-induced blood platelet aggregation; assay: Inhibitory effect in vitro against PAF-induced blood platelet aggregation; format: cell-based; conditions: Oryctolagus cuniculus; rabbit platelet rich plasma, stimulated with ℓ-C16:0 PAF (10⁻⁸ ∼ 3 x 10⁻⁸ M), 37°C; read-out: Platelet aggregation inhibition, IC₅₀
Experimental: Blood samples were obtained by cardiac puncture from a rabbit and one part by volume of each sample was immediately mixed with 0.1 part of a 3.8% w/v aqueous solution of sodium citrate. A platelet rich plasma (PRP) fraction was prepared by centrifuging the samples at 150 x G for 15 minutes at room temperature, and a platelet poor plasma (PPP) fraction was then prepared by further centrifugation at 1,000 x G for 15 minutes. The platelet count in the PRP was adjusted to 6 x 10⁵ per µℓ by the addition of an appropriate amount of the PPP fraction. According to the method reported by Born et al. [G.V.R. Born et al.: J. Physiol. 62, 67 - 68 (1962)], blood platelet aggregation was determined turbidimetrically in a 6-channel aggregometer (Hemetracer, NKB, Tokyo, Japan). Aliquots of the PRP (272 µℓ) were preincubated with 3 µℓ of a solution of the test compound in dimethyl sulphoxide for 1 minute, and then stimulated with ℓ-C16:0 PAF (at a final concentration of 10⁻⁸ ∼ 3 x 10⁻⁸ M) at 37°C with stirring (100 rpm). Changes in light transmission were monitored for 5 minutes. Vehicle (dimethyl sulphoxide) controls were tested simultaneously, and the inhibitory effects of the test compounds were assessed on the maximal aggregation. The IC₅₀ values were calculated by the method of least squares.

[3] = tested on: intracutaneous reaction in rats by PAF; assay: Inhibitory effect on intracutaneous reaction in rats by PAF; format: in vivo; conditions: dose 6.4 mg/kg p.o., 60 minutes before intradermal PAF, leaked Evans blue vs control group
Experimental: Male SD rats (5 weeks old) were used as the test animals in groups, each containing 4 animals. Each rat was administered orally with a suspension of the test compound in a 0.5% w/v aqueous tragacanth solution. Sixty minutes after the administration, aqueous physiological saline containing 1.0% w/v Evans blue was injected into the tail vein in an amount of 5 ml/kg of the body weight. Immediately after the injection, 0.05 ml of a solution containing 2 µg/ml of PAF was intradermally injected into the back of the rat to induce a cutanous reaction. After 30 minutes, the rats were sacrificed using carbon dioxide, and the quantity of Evans blue which had leaked into the skin of the back was determined by the method of Harada et al. [J. Pharm. Pharmac., 23, 218 - 219 (1971)]. The inhibition rate of the compound was calculated by comparing the average amount of colourant which had leaked in the group treated with the test compound with that of control group to which no test compound was administered.
The inhibition rate was calculated according to the following equation: Inhibition rate (%) = (1 - B/A) x 100 [formula] where: A: Amount of colourant leaked in the control group B: Amount of colourant leaked in the group to which the test compound was administered.

[4] = target: T1, PAF-receptor (Oryctolagus cuniculus, UniProt G1TEI7); assay: Inhibitory effect on PAF-receptor binding; parameters: species or system rabbit
T1 construct: a precipitated blood platelet sample was obtained; from tissue; host or cells: rabbit blood platelets, membrane fraction from the 0.25 M / 1.5 M sucrose interface
T1 sequence (G1TEI7 1-342): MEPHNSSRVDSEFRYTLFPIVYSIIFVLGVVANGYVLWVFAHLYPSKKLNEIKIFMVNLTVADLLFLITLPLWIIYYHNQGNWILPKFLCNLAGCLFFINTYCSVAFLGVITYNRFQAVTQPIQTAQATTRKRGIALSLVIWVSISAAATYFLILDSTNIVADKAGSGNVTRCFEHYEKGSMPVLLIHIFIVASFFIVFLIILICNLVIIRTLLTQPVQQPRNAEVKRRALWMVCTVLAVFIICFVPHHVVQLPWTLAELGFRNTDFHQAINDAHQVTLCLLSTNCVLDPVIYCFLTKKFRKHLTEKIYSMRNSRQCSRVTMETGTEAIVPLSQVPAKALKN
Text: Blood samples were drawn from the heart of a rabbit. 1 part by volume of each sample was mixed immediately with 1/9 part of a 0.077 M solution of disodium ethylenediaminetetraacetate. After a similar procedure to that described in Experiment 2, a precipitated blood platelet sample was obtained. This blood platelet sample was washed, and, after repeated freesing and thawing to rupture the cells, it was placed on top of two layers consisting of 0.25 M and 1.5 M sucrose solutions. By centrifugation at 63,500 x G, for 2 hours at 4°C, the fraction obtained from the interface between the 0.25 M and 1.5 M sucrose solutions was collected and is regarded as a PAF-receptor membrane fraction. A receptor binding experiment was then conducted according to a method very similar to that reported by Hwang et al. [San-Bao Hwang et al.: J. Biol. Chem. 260, 15639 - 15645 (1985)]. The specific binding of ³H-PAF was measured using a Wattman GF/C filter. A test compound was dissolved in dimethyl sulphoxide and diluted 100 fold with a buffer solution containing 0.5% bovine serum albumin. Nine parts by volume of the solution, for a receptor binding experiment, was mixed with one part of the test compound solution prepared above. The percent inhibition of the specific binding was plotted against the log of the concentration of the test compound, and the 50% inhibitory concentration (IC₅₀) was calculated from the linear line connecting all the plotted points.

[5] = rabbit platelet PAF-receptor membrane fraction, specific binding of ³H-PAF, read-out: Receptor binding inhibition, IC₅₀ (g/ml) (converted)

## CN(CCOC(c1ccccc1)c1ccccc1)CCN(C)C(=O)[C@@H]1CSC(c2cccnc2)N1 (stereo partly drawn) [Example 1, (4R)-N-Methyl-N-{2-[N-(2-diphenylmethoxyethyl)-N-methylamino]ethyl}-2-(3-pyridyl)thiazolidine-4-carboxamide]
[1]
  Inhibitory rate (%): 33%
[2]
  IC50: 0.063 µg/mL (≈ 0.128 µM)
[3]
  Inhibitory rate (%): 57%

## O=C([C@@H]1CSC(c2cccnc2)N1)N1CCN(CCOC(c2ccccc2)c2ccc(Cl)cc2)CC1 (some centres unmarked) [Example 4]
[4]; [5]
  IC50: 51.6 nM
[2]
  IC50: 0.085 µg/mL (≈ 0.162 µM)
[3]
  Inhibitory rate (%): 64%

## O=C([C@@H]1CSC(c2cccnc2)N1)N1CCN(CCN2CCC(=C(c3ccccc3)c3ccccc3)CC2)CC1 (stereo partly drawn) [Example 5, (4R)-1-{2-[4-(Diphenylmethylene)-1-piperidinyl]ethyl}-4-[2-(3-pyridyl)thiazolidin-4-ylcarbonyl]piperazine]
[1]
  Inhibitory rate (%): 42%

## Cc1ccc(C(OCCN2CCN(C(=O)[C@@H]3CSC(c4cccnc4)N3)CC2)c2ccccc2)cc1 (some centres unmarked) [Example 6]
[4]; [5]
  IC50: 41.8 nM
[1]
  Inhibitory rate (%): 45%
[2]
  IC50: 0.055 µg/mL (≈ 0.109 µM)

## O=C([C@@H]1CSC(c2cccnc2)N1)N1CCN(CCOC(c2ccccc2)c2ccccc2)CC1 (stereo partly drawn) [Example 7, (4R)-1-(2-Diphenylmethoxyethyl)-4-[2-(3-pyridyl)thiazolidin-4-ylcarbonyl]piperazine]
[4]
  IC50: 51.2 nM
[2]
  IC50: 0.095 µg/mL (≈ 0.194 µM)
[3]
  Inhibitory rate (%): 70%

## O=C([C@@H]1CSC(c2cccnc2)N1)N1CCN(CCOC(c2ccccc2)C2CCCCC2)CC1 (stereo partly drawn) [Example 11, (4R)-1-[2-(α-Cyclohexylbenzyloxy)ethyl]-4-[2-(3-pyridyl)thiazolidin-4-ylcarbonyl]piperazine]
[4]; [5]
  IC50: 445 nM
[2]
  IC50: 0.072 µg/mL (≈ 0.146 µM)

## O=C([C@@H]1CSC(c2cccnc2)N1)N1CCCN(CCOC(c2ccc(F)cc2)c2ccc(F)cc2)CC1 (stereo partly drawn) [Example 12, (4R)-1-[2-Bis(4-fluorophenyl)methoxyethyl]-4-[2-(3-pyridyl)thiazolidin-4-ylcarbonyl]homopiperazine]
[4]
  IC50: 390 nM
[2]
  IC50: 0.19 µg/mL (≈ 0.353 µM)

## O=C([C@@H]1CSC(c2cccnc2)N1)N1CCCN(CCOC(c2ccccc2)c2ccccc2)CC1 (stereo partly drawn) [Example 13, (4R)-1-(2-Diphenylmethoxyethyl)-4-[2-(3-pyridyl)thiazolidin-4-ylcarbonyl]homopiperazine]
[4]
  IC50: 279 nM
[2]
  IC50: 0.22 µg/mL (≈ 0.438 µM)

## O=C([C@@H]1CSC(c2cccnc2)N1)N1CCN(CCOC(c2ccc(F)cc2)c2ccc(F)cc2)CC1 (stereo partly drawn) [Example 14, (4R)-1-[2-Bis(4-fluorophenyl)methoxyethyl]-4-[2-(3-pyridyl)thiazolidin-4-ylcarbonyl]piperazine]
[4]
  IC50: 19.1 nM
[2]
  IC50: 0.14 µg/mL (≈ 0.267 µM)
[3]
  Inhibitory rate (%): 47%

## O=C(NCCN1CCN2c3ccccc3Cc3ccccc3[C@@H]2C1)[C@@H]1CSC(c2cccnc2)N1 (stereo partly drawn) [Example 16, (4R)-N-{2-[(14bR)-1,2,3,4,10,14b-Hexahydrodibenzo[c,f]pyrazino[1,2-a]azepin-2-yl]ethyl}-2-(3-pyridyl)thiazolidine-4-carboxamide]
[1]
  Inhibitory rate (%): 62%
[3]
  Inhibitory rate (%): 62%

## O=C(NCCN1CCN2c3ccccc3Cc3ccccc3[C@H]2C1)[C@@H]1CSC(c2cccnc2)N1 (stereo partly drawn) [Example 17, (4R)-N-{2-[(14bS)-1,2,3,4,10,14b-Hexahydrodibenzo[c,f]pyrazino[1,2-a]azepin-2-yl]ethyl}-2-(3-pyridyl)thiazolidine-4-carboxamide]
[1]
  Inhibitory rate (%): 73%

## O=C(NCCN1CCN2c3ccc(F)cc3Cc3ccccc3[C@H]2C1)[C@@H]1CSC(c2cccnc2)N1 (stereo partly drawn) [Example 25, (4R)-N-{2-[(14bS)-8-Fluoro-1,2,3,4,10,14b-hexahydrodibenzo[c,f]pyrazino[1,2-a]azepin-2-yl]ethyl}-2-(3-pyridyl)thiazolidine-4-carboxamide]
[1]
  Inhibitory rate (%): 55%
